From US20060069132A1, “Azolecarboxamide herbicides” (priority 2004, published 2006)

Experiments:
[1] = system: barnyardgrass; experiment: Test B pre-/postemergence herbicide test; type: in vivo, Echinochloa crus-galli; details: for Barnyardgrass plant response rating: postemergence, scale 0 (no effect) to 100 (complete control)
Procedure, shortened: (§1)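 Greenhouse pot assay with simultaneous preemergence (treated seed) and postemergence (2–18 cm seedlings) applications of surfactant-containing, non-phytotoxic solvent formulations. Response scored visually 13–15 days later on a 0–100 scale, 100 meaning complete control.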

[2] = system: Surinam grass; experiment: Test B pre-/postemergence herbicide test; type: in vivo, Urochloa decumbens; details: for Surinam Grass plant response rating: postemergence
Procedure, shortened: (§2)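 Evaluation is visual, comparing treated with control plants on a scale where 0 means no effect and 100 means full control. Treatments were preemergence, or postemergence on seedlings 2–18 cm tall, and held 13–15 days in the greenhouse.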

[3] = system: cocklebur; experiment: Test B pre-/postemergence herbicide test; type: in vivo, Xanthium strumarium; details: for Cocklebur plant response rating: postemergence, scale 0 (no effect) to 100 (complete control)
Procedure, shortened: as §1

[4] = system: corn; experiment: Test B pre-/postemergence herbicide test; type: in vivo, Zea mays; details: for Corn plant response rating: postemergence
Procedure, shortened: as §2

[5] = system: large crabgrass; experiment: Test B pre-/postemergence herbicide test; type: in vivo, Digitaria sanguinalis; details: for Crabgrass, Large plant response rating: postemergence
Procedure, shortened: as §2

[6] = system: giant foxtail; experiment: Test B pre-/postemergence herbicide test; type: in vivo, Setaria faberi; details: for Foxtail, Giant plant response rating: postemergence
Procedure, shortened: as §2

[7] = system: lambsquarters; experiment: Test B pre-/postemergence herbicide test; type: in vivo, Chenopodium album; details: for Lambsquarters plant response rating: postemergence
Procedure, shortened: as §2

[8] = system: morningglory; experiment: Test B pre-/postemergence herbicide test; type: in vivo, Ipomoea coccinea; details: for Morningglory plant response rating: postemergence
Procedure, shortened: as §1

[9] = system: pigweed; experiment: Test B pre-/postemergence herbicide test; type: in vivo, Amaranthus retroflexus; details: for Pigweed plant response rating: postemergence
Procedure, shortened: as §2

[10] = system: rice; experiment: Test B pre-/postemergence herbicide test; type: in vivo, Oryza sativa; details: 0 = no effect, 100 = complete control, preemergence
Procedure, shortened: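 Plants compared with untreated controls 13–15 days post-treatment and given a visual 0–100 injury score. Applications: preemergence to seeds; postemergence at 1- to 4-leaf (2–18 cm); paddy species flooded, 2-leaf stage. Vehicle non-phytotoxic, surfactant included.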

[11] = system: velvetleaf; experiment: Test B pre-/postemergence herbicide test; type: in vivo, Abutilon theophrasti; details: for Velvetleaf plant response rating: postemergence
Procedure, shortened: as §2

[12] = system: blackgrass; experiment: Test B postemergence herbicide test; type: in vivo, Alopecurus myosuroides; details: postemergence, visual rating, scale 0 (no effect) to 100 (complete control)
Procedure, shortened: (§3)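 Greenhouse test; postemergence application to plants at 1–4 leaves (2–18 cm); paddy species at 2 leaves; evaluated visually vs controls at 13–15 days; scale 0–100 (100 = complete control).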

[13] = system: wheat; experiment: Test B postemergence herbicide test; type: in vivo, Triticum aestivum; parameters: key to Wheat plant response rating: 0 = no effect, 100 = complete control; details: postemergence
Procedure, shortened: (§4)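 Postemergence plants were sprayed with formulated test chemicals at 2 to 18 cm height (1- to 4-leaf stage); paddy species were grown to the 2-leaf stage. After 13 to 15 days in a greenhouse, injury was rated visually against untreated controls on a 0–100 scale (0 = no effect, 100 = complete control).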

[14] = system: wild oat; experiment: Test B postemergence herbicide test; type: in vivo, Avena fatua; details: postemergence
Procedure, shortened: as §4

[15] = system: rice; experiment: Test B flooded paddy test; type: in vivo, Oryza sativa; details: 1000 g ai/ha, scale 0 to 100 (0 no effect, 100 complete control)
Procedure, shortened: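 Each value is a visual 0–100 response rating taken against controls 13 to 15 days after treatment in the greenhouse. Plants received formulated chemical postemergence at the 1- to 4-leaf stage or, in flooded paddy, at the 2-leaf stage.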

[16] = system: small flower umbrella sedge; experiment: Test B flooded paddy test; type: in vivo, Cyperus difformis; details: 1000 g ai/ha, scale 0 to 100 (0 no effect, 100 complete control)
Procedure, shortened: as §3

[17] = system: ducksalad; experiment: Test B flooded paddy test; type: in vivo, Heteranthera limosa; details: 1000 g ai/ha, scale 0 to 100 (0 no effect, 100 complete control)
Procedure, shortened: as §3

[18] = system: barnyardgrass; experiment: Test B flooded paddy test; type: in vivo, Echinochloa crus-galli; details: 1000 g ai/ha, scale 0 to 100 (0 no effect, 100 complete control)
Procedure, shortened: as §3

[19] = system: rice; experiment: Test C flooded paddy test; type: in vivo, Oryza sativa
Procedure, shortened: (§5)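 Postemergence sprays applied to plants 2 to 18 cm tall (1- to 4-leaf stage); paddy species grown to 2-leaf stage under flooding. After 12 to 14 days in greenhouse, visual rating versus untreated controls on 0–100 scale (0 no effect, 100 complete control).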

[20] = system: smallflower umbrella sedge; experiment: Test C flooded paddy test; type: in vivo, Cyperus difformis
[21] = system: ducksalad; experiment: Test C flooded paddy test; type: in vivo, Heteranthera limosa
[22] = system: barnyardgrass; experiment: Test C flooded paddy test; type: in vivo, Echinochloa crus-galli
Procedure, shortened: as §5

[23] = 125 g ai/ha, 0 = no effect, 100 = complete control, preemergence
[24] = 500 g ai/ha, visual rating, 0 = no effect, 100 = complete control, preemergence
[25] = 125 g ai/ha, visual rating, scale 0 (no effect) to 100 (complete control)
[26] = 500 g ai/ha, scale 0 to 100, 0 is no effect, 100 is complete control
[27] = 125 g ai/ha, scale 0 to 100 (0 no effect, 100 complete control)
[28] = 250 g ai/ha, scale of 0 to 100, 0 is no effect, 100 is complete control
[29] = 500 g ai/ha, visual rating after 12 to 14 days, scale 0 to 100 (0 no effect, 100 complete control)

CCNC(=O)c1cncc(NC(=O)c2cc(C(C)(C)C)nn2CC)c1 [Compound 259]
70: Plant response rating, Barnyardgrass [1, 24] | Plant response rating, Foxtail, Giant [6, 24] | Rice plant response rating [15] | Sedge, Umbrella plant response rating [16] | Plant response rating, Sedge, Umbrella [20, 29]
75: Plant response rating, Ducksalad [21, 29]
35: Sedge, Umbrella plant response rating [20, 27]
90: Plant response rating, Morningglory [8, 24] | Pigweed plant response rating [9, 26] | Ducksalad plant response rating [17]
10: Surinam Grass plant response rating [2, 25] | Corn plant response rating [4, 25] | Lambsquarters plant response rating [7, 25] | Blackgrass plant response rating ([12]; 125 g ai/ha) | Wheat plant response rating [13, 25] | Oat, Wild plant response rating [14, 25]
30: Plant response rating, Surinam Grass [2, 24] | Lambsquarters plant response rating [7, 26] | Pigweed plant response rating [9, 25] | Barnyardgrass plant response rating [18]
55: Sedge, Umbrella plant response rating [20, 28]
20: Surinam Grass plant response rating [2, 26] | Cocklebur plant response rating ([3]; 500 g ai/ha, visual rating) | Corn plant response rating [4, 26] | Crabgrass, Large plant response rating [5, 26] | Blackgrass plant response rating ([12]; 500 g ai/ha) | Wheat plant response rating [13, 26] | Oat, Wild plant response rating [14, 26]
65: Ducksalad plant response rating [21, 28]
60: Ducksalad plant response rating [21, 27]
50: Plant response rating, Crabgrass, Large [5, 24]
0: Barnyardgrass plant response rating (0 to 100 scale) [1, 23] | Barnyardgrass plant response rating ([1]; 125 g ai/ha, visual rating) | Barnyardgrass plant response rating ([1]; 500 g ai/ha, visual rating) | Surinam Grass plant response rating (0 to 100 scale) [2, 23] | Cocklebur plant response rating (0 to 100 scale) [3, 23] | Plant response rating, Cocklebur [3, 24] | Cocklebur plant response rating ([3]; 125 g ai/ha, visual rating) | Corn plant response rating (0 to 100 scale) [4, 23] | Plant response rating, Corn [4, 24] | Crabgrass, Large plant response rating (0 to 100 scale) [5, 23] | Crabgrass, Large plant response rating [5, 25] | Foxtail, Giant plant response rating (0 to 100 scale) [6, 23] | Foxtail, Giant plant response rating [6, 25] | Foxtail, Giant plant response rating [6, 26] | Lambsquarters plant response rating (0 to 100 scale) [7, 23] | Morningglory plant response rating (0 to 100 scale) [8, 23] | Morningglory plant response rating [8, 25] | Morningglory plant response rating [8, 26] | Pigweed plant response rating (0 to 100 scale) [9, 23] | Rice plant response rating (0 to 100 scale) ([10]; 125 g ai/ha) | Plant response rating, Rice ([10]; 500 g ai/ha, visual rating) | Velvetleaf plant response rating (0 to 100 scale) [11, 23] | Plant response rating, Velvetleaf [11, 24] | Velvetleaf plant response rating [11, 25] | Velvetleaf plant response rating [11, 26] | Rice plant response rating ([19]; 62 g ai/ha, scale 0 to 100) | Rice plant response rating [19, 27] | Rice plant response rating [19, 28] | Plant response rating, Rice [19, 29] | Sedge, Umbrella plant response rating ([20]; 62 g ai/ha, scale 0 to 100) | Ducksalad plant response rating ([21]; 62 g ai/ha, scale 0 to 100) | Barnyardgrass plant response rating ([22]; 62 g ai/ha, scale 0 to 100 (0 no effect, 100 complete control)) | Barnyardgrass plant response rating [22, 27] | Barnyardgrass plant response rating [22, 28] | Plant response rating, Barnyardgrass [22, 29]
100: Plant response rating, Pigweed [9, 24]
